Assay results published in patent US20240368153A1, “Aminopyridine-based MTA-Cooperative PRMT5 Inhibitors” (Mirati Therapeutics, Inc., priority 2021, published 2024).
Where two headings read alike, the source gives them in different places.

How the values were obtained:
[1] = target: recombinant human dual expressed Avi PRMT5/His-MEP50 protein (Homo sapiens (Human), UniProt O14744); test: HTRF binding assay in presence of MTA; conditions: 30 μM MTA
Description: The PRMT5 binding activity of compounds of the present invention was determined using an HTRF binding assay or SPR assay.
A recombinant human dual expressed Avi PRMT5/His-MEP50) protein (corresponding to amino acids for PRMT5 2-637, and 2-342 for MEP50 expressed in baculovirus) was incubated with target fragments in final buffer (25 mM ADA pH 7.2, 30 μM MTA, 1 mM TCEP, 50 mM NaCl, 0.002% Tween, 5 nM proprietary Tracer binding compound prepared in-house), overnight at 2-8° C. After overnight incubation the binding is monitored after the addition of 0.5 nM Anti-His-Tb (Cisbio) after 1 hr incubation at RT (˜20-24 hrs total binding time). The HTRF signal was measured using a Clariostar reader (BMG) excitation filter (Ex Tr), dichroic filter (LP TP) and emission filters (F 665-10 and F 620-10) manufacturer's instructions. The HTRF ratio was calculated using the formula: [emission 665/emission 620]*10000.

[2] = target: PRMT5•MTA (biotinylated PRMT5-MEP50) (Homo sapiens (Human), UniProt O14744); test: SPR binding assay, MTA running buffer; conditions: 20 μM MTA running buffer
Description: (§1) SPR screening was performed in MTA running buffer (25 mM Bicine pH 7.6, 100 mM NaCl, 1 mM TCEP, 20 μM MTA, 0.05% Tween-20 and 2% DMSO). The biotinylated PRMT5-MEP50 surface was equilibrated with MTA running buffer for 12 hours prior to the start. […] Subsequently, compound titration was repeated in SAM-running buffer (25 mM Bicine pH 7.6, 100 mM NaCl, 1 mM TCEP, 20 μM SAM, 0.05% Tween-20, and 2% DMSO). […] After double referencing, the steady-state response was extracted for each fragment concentration and was fit to the Langmuir isotherm equation to determine the equilibrium dissociation constant (KD).

[3] = target: PRMT5•SAM (biotinylated PRMT5-MEP50) (Homo sapiens (Human), UniProt O14744); test: SPR binding assay, SAM running buffer; conditions: 20 μM SAM running buffer
Description: as §1

PRMT5/MEP50 complex = PRMT5/MEP50 complex (Homo sapiens (Human), UniProt O14744); test: PRMT5:MEP50 FlashPlate Assay; format: biochemical
Description: The PRMT5 inhibitory activity of compounds of the present invention was determined using a PRMT5:MEP50 FlashPlate Assay (Reaction Biology Corporation).
The assay uses purified human, PRMT5 enzyme to convert S-adenosyl-L-[methyl-^3H]methionine plus histone H4 L-arginine to S-adenosyl-L-homocysteine plus histone H4 [methyl-^3H]-L-arginine. The assay was carried out using Streptavidin-coated FlashPlates (Perkin Elmer), which contained a scintillant embedded in the plastic of the plate. The histone H4 peptide substrate was conjugated with biotin, which binds to the streptavidin-coated well of the plate, placing the H4 peptide in close proximity to the side well and the scintillant. The transfer of the tritiated methyl group from S-adenosyl-L-[methyl-^3H]methionine to the bound histone H4 peptide generated a radiolabeled histone H4, which was quantitated by measuring in a scintillation counter to determine the activity of PRMT5 enzyme in the presence and absence of compound. […] Briefly, compounds of the present invention were solubilized in 100% DMSO at a highest concentration of 10 mM. For IC, determinations, the initial starting concentration for the serial dilutions of each compound was 50 μM. Control samples lacking compound, PRMT5/MEP50 complex or various reaction components also were prepared and processed in parallel with compound test samples. SAH was used as a positive control for assay validation. To measure PRMT5 inhibitory activity, 3 nM PRMT5/MEP50 complex (Reaction Biology Corporation) was preincubated with test compound in assay buffer containing 40 nM histone H4 peptide (amino acids 1-15)-Biotin conjugate for 20 min at room temperature. The enzymatic reaction was initiated by adding 1 μM tritiated S-adenosyl methionine (final concentration) and the reaction is allowed to proceed for 20 min. The reaction was stopped and the amount of bound, tritiated H4 peptide in each sample was determined using a scintillation counter. The IC50 value for each compound was calculated from each 10-point dose-response curve for samples plus and minus MTA using GraphPad Prism software and the results for exemplary compounds of Formula (I) is shown in Table 9a.

[4] = histone H4 peptide, absence of MTA, read-out: IC50
[5] = read-out: IC50 + 2 μM MTA, histone H4 peptide, presence of 2 μM MTA

Chain of recombinant human dual expressed Avi PRMT5/His-MEP50 protein (O14744 2-637): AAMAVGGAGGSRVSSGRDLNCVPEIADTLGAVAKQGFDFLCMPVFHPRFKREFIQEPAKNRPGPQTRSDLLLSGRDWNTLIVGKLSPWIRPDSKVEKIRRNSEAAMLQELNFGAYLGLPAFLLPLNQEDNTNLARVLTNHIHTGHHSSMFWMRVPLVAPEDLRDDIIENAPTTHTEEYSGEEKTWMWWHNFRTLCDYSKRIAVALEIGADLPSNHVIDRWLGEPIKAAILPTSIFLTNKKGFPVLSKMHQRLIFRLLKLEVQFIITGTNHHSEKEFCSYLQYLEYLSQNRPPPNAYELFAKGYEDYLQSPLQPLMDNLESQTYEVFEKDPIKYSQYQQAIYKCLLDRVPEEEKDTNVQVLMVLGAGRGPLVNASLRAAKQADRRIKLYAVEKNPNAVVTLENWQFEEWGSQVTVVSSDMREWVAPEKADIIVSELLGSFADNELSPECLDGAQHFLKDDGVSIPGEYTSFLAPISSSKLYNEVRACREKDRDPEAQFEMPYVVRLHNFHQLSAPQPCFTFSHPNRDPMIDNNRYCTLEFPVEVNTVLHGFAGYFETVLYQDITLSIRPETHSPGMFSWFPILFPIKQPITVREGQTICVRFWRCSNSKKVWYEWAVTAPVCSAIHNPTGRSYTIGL
Chain of recombinant human dual expressed Avi PRMT5/His-MEP50 protein (Q9BQA1 2-342 partner): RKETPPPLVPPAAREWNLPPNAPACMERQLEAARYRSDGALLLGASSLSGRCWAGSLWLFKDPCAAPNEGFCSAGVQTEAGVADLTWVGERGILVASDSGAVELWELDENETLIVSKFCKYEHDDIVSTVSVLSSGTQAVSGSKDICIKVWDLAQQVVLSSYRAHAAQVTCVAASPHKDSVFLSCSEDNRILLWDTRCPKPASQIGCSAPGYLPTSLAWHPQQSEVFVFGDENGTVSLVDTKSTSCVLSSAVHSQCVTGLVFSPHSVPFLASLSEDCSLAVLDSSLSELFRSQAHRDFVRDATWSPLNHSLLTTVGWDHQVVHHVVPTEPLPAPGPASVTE
Chain of PRMT5•MTA (biotinylated PRMT5-MEP50) (O14744 whole entry, the tested form may be a part): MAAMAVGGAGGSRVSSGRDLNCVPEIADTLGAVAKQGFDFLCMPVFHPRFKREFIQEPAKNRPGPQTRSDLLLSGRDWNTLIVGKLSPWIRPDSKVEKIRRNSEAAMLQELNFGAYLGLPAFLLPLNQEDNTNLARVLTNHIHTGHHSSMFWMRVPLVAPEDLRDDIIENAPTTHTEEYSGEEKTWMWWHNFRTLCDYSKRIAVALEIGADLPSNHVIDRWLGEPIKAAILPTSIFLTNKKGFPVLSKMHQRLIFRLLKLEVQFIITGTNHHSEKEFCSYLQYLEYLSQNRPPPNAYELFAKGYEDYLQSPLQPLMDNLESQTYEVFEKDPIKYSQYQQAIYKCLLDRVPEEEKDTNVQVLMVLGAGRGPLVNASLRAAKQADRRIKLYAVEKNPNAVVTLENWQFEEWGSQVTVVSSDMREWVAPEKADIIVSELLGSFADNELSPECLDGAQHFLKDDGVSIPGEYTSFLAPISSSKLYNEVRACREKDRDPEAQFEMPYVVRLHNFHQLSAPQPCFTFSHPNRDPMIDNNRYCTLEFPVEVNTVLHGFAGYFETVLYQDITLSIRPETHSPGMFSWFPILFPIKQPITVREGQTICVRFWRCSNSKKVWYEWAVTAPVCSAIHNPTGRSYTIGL
Chain of PRMT5•MTA (biotinylated PRMT5-MEP50) (Q9BQA1 whole entry partner, the tested form may be a part): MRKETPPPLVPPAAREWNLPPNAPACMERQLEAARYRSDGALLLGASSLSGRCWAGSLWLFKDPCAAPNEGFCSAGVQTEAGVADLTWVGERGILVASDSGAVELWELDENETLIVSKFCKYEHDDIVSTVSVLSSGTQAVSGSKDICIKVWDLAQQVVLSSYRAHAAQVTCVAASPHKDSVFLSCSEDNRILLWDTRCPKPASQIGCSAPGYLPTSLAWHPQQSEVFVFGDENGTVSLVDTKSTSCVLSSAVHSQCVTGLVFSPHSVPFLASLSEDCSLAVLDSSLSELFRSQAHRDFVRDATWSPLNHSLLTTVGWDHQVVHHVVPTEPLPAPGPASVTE
Chain of PRMT5/MEP50 complex (O14744 whole entry): as the sequence (O14744 whole entry, the tested form may be a part) above
Chain of PRMT5/MEP50 complex (Q9BQA1 whole entry partner): as the sequence (Q9BQA1 whole entry partner, the tested form may be a part) above
Chain of PRMT5•SAM (biotinylated PRMT5-MEP50) (O14744 whole entry): as the sequence (O14744 whole entry, the tested form may be a part) above
Chain of PRMT5•SAM (biotinylated PRMT5-MEP50) (Q9BQA1 whole entry partner): as the sequence (Q9BQA1 whole entry partner, the tested form may be a part) above

Row | Compound | IC50 [1] [µM] | Kd [2] [µM] | Kd [3] [µM] | IC50 (PRMT5/MEP50 complex; [4]) [µM] | IC50 (PRMT5/MEP50 complex; [5]) [µM] | IC50 (PRMT5/MEP50 complex; IC50 + 2 μM MTA, histone H4 peptide, presence of 2 μM MTA) [µM]
1 | Nc1nc2cc[nH]c2cc1C(F)(F)F [Example 9-3, 6-(trifluoromethyl)-1H-pyrrolo[3,2-b]pyridin-5-amine] | 20.3 | 11.7 | 29.2 | 431 | 210 | –
2 | Cc1cc(N)nc2cc(Cc3cnn(C)c3)cnc12 [Example 2-9, 4-methyl-7-[(1-methylpyrazol-4-yl)methyl]-1,5-naphthyridin-2-amine] | 0.204 | 0.137 | 0.748 | 243 | 17.1 | –
3 | Cc1cc(N)nc2cc(CNC(=O)c3cc(O)ncn3)cnc12 [Example 7-3, N-[(6-amino-8-methyl-1,5-naphthyridin-3-yl)methyl]-6-hydroxy-pyrimidine-4-carboxamide] | 1.06 | 0.682 | 12.5 | > 100 | 60 | –
4 | Cc1cc2[nH]c(CN3CCc4ccccc4C3=O)cc2nc1N [Example 14-6, 2-[(5-amino-6-methyl-1H-pyrrolo[3,2-b]pyridin-2-yl)methyl]-3,4-dihydroisoquinolin-1-one] | 0.007 | 0.001 | 0.006 | 43.2 | 0.504 | –
5 | Cc1cc(N)nc2cc(-c3cnsc3)cnc12 [Example 1-8, 7-(isothiazol-4-yl)-4-methyl-1,5-naphthyridin-2-amine] | 11.4 | 7.5 | 19.1 | > 300 | > 300 | –
6 | Nc1nc2cc(NC(=O)c3ccccc3F)[nH]c2cc1Br [Example 12-4, N-(5-amino-6-bromo-1H-pyrrolo[3,2-b]pyridin-2-yl)-2-fluoro-benzamide] | 1.62 | 1.89 | 4.95 | 100 | 48.9 | –
7 | Cc1cc2[nH]ccc2nc1N [Example 9-1, 6-methyl-1H-pyrrolo[3,2-b]pyridin-5-amine] | 2.2 | 0.456 | 3.36 | 188 | 27.9 | –
8 | Cc1cc2[nH]c(C(C#N)N3C(=O)c4ccccc4C3=O)cc2nc1N (stereo not shown) [Example 14-5, 2-(5-amino-6-methyl-1H-pyrrolo[3,2-b]pyridin-2-yl)-2-(1,3-dioxoisoindolin-2-yl)acetonitrile] | 0.037 | 0.203 | 0.727 | 245 | 4.26 | –
9 | CC(=O)NCc1cc2nc(N)c(C)cc2[nH]1 [Example 14-3, N-((5-amino-6-methyl-1H-pyrrolo[3,2-b]pyridin-2-yl)methyl)acetamide] | 0.102 | 0.012 | 0.038 | 271 | 0.138 | –
10 | Cc1cc(N)nc2cc(CNC(=O)c3ccccc3)cnc12 [Example 8-1, N-[(6-amino-8-methyl-1,5-naphthyridin-3-yl)methyl]benzamide] | 0.009 | 0.005 | 0.033 | 4.29 | 0.419 | –
11 | Cc1cc(N)nc2cc(CNC(=O)c3ccncn3)cnc12 [Example 7-2, N-[(6-amino-8-methyl-1,5-naphthyridin-3-yl)methyl]pyrimidine-4-carboxamide] | 0.313 | 0.151 | 2.22 | > 100 | 22 | –
12 | Cc1cc(N)nc2ccc(-c3ccccc3F)nc12 [Example 4-7, 6-(2-fluorophenyl)-4-methyl-1,5-naphthyridin-2-amine] | 10.1 | 32 | 81.4 | > 300 | > 300 | –
13 | Cc1cc2[nH]c(N3CC(=O)N(C)C3=O)cc2nc1N [Example 13-4, 1-(5-amino-6-methyl-1H-pyrrolo[3,2-b]pyridin-2-yl)-3-methyl-imidazolidine-2,4-dione] | 50.6 | 10.7 | 30.9 | > 300 | > 300 | –
14 | Nc1nc2cc(NC(=O)c3ccccc3)[nH]c2cc1Br [Example 12-1, N-(5-amino-6-bromo-1H-pyrrolo [3,2-b]pyridin-2-yl)benzamide] | 1.41 | 2.54 | 6.29 | > 100 | > 100 | –
15 | Nc1nc2cc[nH]c2cc1C1CC1 [Example 9-2, 6-cyclopropyl-1H-pyrrolo[3,2-b]pyridin-5-amine] | 24.7 | 3.26 | 19.6 | 232 | 97.8 | –
16 | Cc1cc(N)nc2cc(Cc3ccccc3Cl)cnc12 [Example 2-3, 7-(2-chlorobenzyl)-4-methyl-1,5-naphthyridin-2-amine] | 1.31 | 4.68 | 31.5 | > 300 | > 300 | –
17 | Cc1cc2[nH]c(-n3cnc(Br)c3)cc2nc1N [Example 13-3, 2-(4-bromoimidazol-1-yl)-6-methyl-1H-pyrrolo[3,2-b]pyridin-5-amine] | 2.36 | 0.68 | 2.01 | > 300 | – | 131
18 | Cc1cc2[nH]c(Cn3ccc4ccccc4c3=O)cc2nc1N [Example 14-7, 2-[(5-amino-6-methyl-1H-pyrrolo[3,2-b]pyridin-2-yl)methyl]isoquinolin-1-one] | 0.008 | 0.002 | 0.006 | 36.7 | 0.474 | –
19 | CC(=O)N(C)Cc1cc2nc(N)c(C)cc2[nH]1 [Example 14-4, N-((5-amino-6-methyl-1H-pyrrolo[3,2-b]pyridin-2-yl)methyl)-N-methylacetamide] | 0.124 | 0.017 | 0.08 | 170 | 1.24 | –
20 | Cc1cc2sc(CNC(=O)c3ccccc3)cc2nc1N [Example 16-1, N-[(5-amino-6-methyl-thieno[3,2-b]pyridin-2-yl)methyl]benzamide] | 0.163 | 0.072 | 1.35 | > 300 | 18.2 | –
21 | Nc1nc2cc(CNC(=O)c3ccncn3)[nH]c2cc1Br [Example 8-2, N-[(5-amino-6-bromo-1H-pyrrolo[3,2-b]pyridin-2-yl)methyl]pyrimidine-4-carboxamide] | 0.013 | 0.009 | 0.137 | 5.79 | 0.362 | –
22 | Cc1cc(N)nc2cc(CNC(=O)c3cc(NC4CC4)ncn3)cnc12 [Example 7-4, N-[(6-amino-8-methyl-1,5-naphthyridin-3-yl)methyl]-6-(cyclopropylamino)pyrimidine-4-carboxamide] | 0.029 | 0.022 | 0.081 | 18.2 | 1.66 | –
23 | Cc1cc2[nH]c(-n3cncn3)cc2nc1N [Example 13-1, 6-methyl-2-(1,2,4-triazol-1-yl)-1H-pyrrolo[3,2-b]pyridin-5-amine] | 1.28 | 0.51 | 1.18 | > 300 | 176 | –
